What all share (experiment): NCI tumour cell line growth inhibition, 48 h
In experiment [1] the test system is NCI-H23 lung.
The subject of experiment [2] is HS 578T breast.
The subject of experiment [3] is SNB-19 CNS.
Experiment [4] relates to SK-MEL-28 melanoma.
The test system of experiment [5] is HCT-116 colon.
In experiment [6] the test system is A498 renal.
The subject of experiment [7] is COLO 205 colon.
Experiment [8] concerns U251 CNS.
For experiment [9], the system named is NCI-H226 lung.
For experiment [10], the system named is HT29 colon.
Experiment [11] deals with KM12 colon.
In experiment [12] the test system is NCI-H522 lung.
In experiment [13] the test system is UACC-62 melanoma.

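Grown in 96-well plates, cells were treated for 48 hours with each compound at five concentrations. Insufficient inhibition: endpoint recorded as highest concentration tested. Here, GI50 denotes the concentration required for 50% inhibition of growth. TGI is the concentration that stops growth completely.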

As to `C=CC(=O)N1CCN(c2nc(OC[C@@H]3CCCN3C)nc3c2CCN(c2cccc4cccc(C)c24)C3)C[C@@H]1CC#N`, the GI50 in experiment [1] was < 0.01 µM; in [2] it was 1.71 µM; in experiment [3] it was 1.59 µM; in experiment [4], 1.71 µM. The TGI in [1] came out at 1.5 µM; in [2] it was 4.53 µM; in experiment [3], 2.99 µM; in experiment [4], 3.09 µM.

Consider `c1ccc(C(c2ccccc2)[P+](c2ccccc2)(c2ccccc2)c2ccccc2)cc1`, for which the TGI in [5] is 5.02 µM; in [1], 5.05 µM; in experiment [6] it was 8.62 µM; in experiment [3] it was 10 µM; in experiment [7], 1.2 µM; in [4], 5.18 µM. The TGI worked out at 12.1 µM in experiment [8]; 6.03 µM in experiment [9]; 6.73 µM in experiment [10]; 2.7 µM in experiment [11]; 1.14 µM in [12]; 3.56 µM in experiment [13].

In the case of `CCCCCCCCCCCCCCCC[N+](C)(C)CCN(Cc1ccc(OC)cc1)c1ncccn1`, the GI50 in experiment [6] was 1.69 µM; in experiment [2] it was 1.76 µM; in [4] it was 2.1 µM; in experiment [9], 2.77 µM; in experiment [13] it was 1.75 µM. In addition, the TGI in experiment [6] worked out at 5.21 µM; in experiment [2] it was 4.4 µM; in experiment [4] it was 4.5 µM; in [9] it was 14 µM; in experiment [13], 4.37 µM.

`COc1ccccc1N1C(Cl)C(=O)C1c1c[nH]c2ccccc12` (stereo not given): the TGI in experiment [5], in experiment [1], in experiment [3], in [7], in experiment [4] and in [8] was > 100 µM throughout. For the same molecule, the TGI in experiment [10], in experiment [11], in [12] and in experiment [13] was > 100 µM in each case.

For the molecule `Nc1ccc(C2NC(=O)Cc3c2ccc2ccccc32)cc1` (stereo not given), the TGI in experiment [5], in experiment [1], in experiment [6], in experiment [2], in [3] and in experiment [7] was > 100 µM in each case. Also, the TGI in experiment [4], in [8], in [9], in [10], in experiment [11] and in [12] was > 100 µM throughout. The TGI in experiment [13] is > 100 µM.

On to `Cc1ccc2cc3c(ccc4ccccc43)c3c2c1CC3`, for which the TGI in experiment [5], in experiment [1], in experiment [6], in experiment [2], in experiment [3] and in experiment [7] was > 100 µM in each case. Further, the TGI in experiment [4], in experiment [8], in experiment [9], in [10], in experiment [11] and in experiment [12] was > 100 µM throughout. In addition, the TGI in [13] was > 100 µM. Further, the GI50 in experiment [6] was > 100 µM.

Consider `COc1ccc2oc(=O)cc(C)c2c1`, for which the TGI in experiment [5], in [1], in [6], in experiment [2], in [3] and in experiment [7] was > 100 µM throughout. The TGI in experiment [4], in [8], in [9], in experiment [10], in [11] and in [12] was > 100 µM in each case. The TGI in experiment [13] is > 100 µM.

As for `O=C(O)C(O)Cc1ccccn1` (stereo not given), the TGI in experiment [1], in [6], in experiment [2], in [3], in experiment [7] and in experiment [4] was > 100 µM throughout. Besides, the TGI in [8], in experiment [9], in experiment [10], in [11], in experiment [12] and in experiment [13] was > 100 µM in each case.

As for `CCCCNc1c(CN)cnc2cc(Cl)ccc12`, the TGI in experiment [5] turned out to be 35.9 µM; in [1], 39.2 µM; in experiment [6], 28.7 µM; in experiment [2], 37.2 µM; in experiment [3] it was 51 µM; in experiment [7] it was 21.5 µM. The TGI in [4] turned out to be 30 µM; in [8] it was 30.4 µM; in experiment [9] it was 32.6 µM; in [10] it was 37 µM; in [11] it was 36.7 µM; in experiment [12] it was 34.5 µM. For the same molecule, the TGI in experiment [13] was 29 µM.

In the case of `CN(C)CCCNc1ncnc2nc[nH]c12`, the TGI in [5], in experiment [1], in experiment [6], in experiment [2], in experiment [3] and in [7] was > 100 µM throughout. The TGI in experiment [4], in experiment [8], in experiment [9], in experiment [10], in [11] and in experiment [12] was > 100 µM each time. Besides, the TGI in [13] was > 100 µM.

Take `NC(=O)NO`: the TGI in experiment [5] was > 2500 µM; in [1] it was 2050 µM; in experiment [6] it was 1990 µM; in [2], > 1220 µM; in experiment [3], > 2340 µM; in [7] it was > 2500 µM. The TGI in experiment [4] was > 2500 µM; in experiment [8], 2330 µM; in experiment [9], 2120 µM; in experiment [10], > 2440 µM; in [11], 2500 µM; in [12], 2270 µM. The same molecule came in with a TGI in experiment [13] of 1560 µM.

On to `FC(F)(F)C(C1=NC(C(F)(F)F)(C(F)(F)F)N=C(N2CCOCC2)O1)C(F)(F)F`, for which the TGI is > 100 µM in [5]; > 100 µM in [2]; > 100 µM in experiment [3]; 38.9 µM in [7]; 52.4 µM in experiment [4]; > 100 µM in [8]. In addition, the TGI in [10] is 57.8 µM; in [11] it was > 100 µM; in experiment [12], 46.2 µM; in experiment [13], 33.5 µM.

Consider `O=C(c1ccccc1)[C@H]1Nc2ccc(Cl)cc2[C@H]2OCCC[C@@H]12`, for which the TGI in experiment [5] was determined as 31.5 µM; in experiment [1], 52 µM; in experiment [3], 90.3 µM; in [7], 45.7 µM; in experiment [4] it was 32.2 µM; in experiment [8], 31.7 µM. Also, the TGI in experiment [9] was found to be 47.7 µM; in [10], 35.3 µM; in experiment [11], 34.1 µM; in experiment [12], 36.8 µM; in experiment [13], 33.5 µM.

`CC(=O)Oc1ccc2c(C)cc(=O)oc2c1`: the TGI in [5], in experiment [1], in [6], in experiment [2], in experiment [3] and in experiment [7] was > 100 µM each time. Moreover, the TGI in [4], in [8], in experiment [9], in [10], in experiment [11] and in experiment [12] was > 100 µM throughout. The TGI in [13] is > 100 µM.

With `O=C(O)CSCC(=O)O`, the TGI in experiment [5], in experiment [1], in experiment [6], in [2], in experiment [3] and in experiment [4] was > 100 µM throughout. In addition, the TGI in experiment [8], in experiment [9], in [10], in experiment [11], in experiment [12] and in experiment [13] was > 100 µM in each case.

Turning to `CS/C(=N\C(=S)Nc1ccccc1)Nc1ccccc1`, the TGI was > 100 µM in experiment [1]; 81.5 µM in [6]; 94.6 µM in experiment [3]; 78.1 µM in [7]; > 100 µM in experiment [4]; > 100 µM in [8]. Further, the TGI is 70.5 µM in experiment [9]; 33.1 µM in experiment [10]; > 100 µM in experiment [11]; 38 µM in experiment [12]; 53.6 µM in experiment [13].

`C=CCOC1OC(CS(=O)(=O)O)C(O)C(O)C1O` (stereo not given): the TGI in experiment [5], in [1], in experiment [6], in experiment [2], in [3] and in experiment [7] was > 100 µM in each case. Moreover, the TGI in [4], in experiment [8], in experiment [9], in experiment [10], in experiment [11] and in experiment [13] was > 100 µM in each case.
